Publication PMC6609550, “Blockade of the forward Na^+/Ca^2+ exchanger suppresses the growth of glioblastoma cells through Ca^2+‐mediated cell death” (British Journal of Pharmacology, 2019)

Assays:
Format in all cases: cell-based, Human
JNK = experiment: Western blot of phosphorylated and total JNK in U87 cells; settings: BAPTA‐AM 10 μM 18 hr then bepridil 25 μM 30 min
Protocol: (§1) After treatment with bepridil for 0, 30, 60, and 90 min, cells were collected and lysed in RIPA buffer (Beyotime, Nanjing, China) supplemented with protease inhibitor (Beyotime). The total protein concentration of each sample was determined using the BCA Protein Assay Kit (Sangon Biotech, Shanghai, China). Equal protein extracts (45‐μg protein per lane) were separated by SDS‐PAGE and electrophoretically transferred to PVDF membranes (Millipore, Bedford, MA, USA). Then, the membranes were incubated with anti‐phosphorylated and total http://www.guidetopharmacology.org/GRAC/FamilyDisplayForward?familyId=514, http://www.guidetopharmacology.org/GRAC/FamilyDisplayForward?familyId=518, and http://www.guidetopharmacology.org/GRAC/FamilyDisplayForward?familyId=519 antibodies (1:1,000; Cell Signaling Technology) at 4°C overnight, followed by incubation with IRDye 680LT fluorescent secondary antibody (LI‐COR Biosciences, Lincoln, NE, USA). Proteins were visualized using the Odyssey Fc Imaging System (LI‐COR Biosciences, Lincoln, NE, USA). Mouse α‐tubulin antibody was used as protein loading controls. The immuno‐related procedures used comply with the recommendations made by the British Journal of Pharmacology (Alexander et al., 2018).

U87 cells [1] = experiment: Annexin V–FITC/PI apoptosis assay of U87 cells
Protocol: (§2) U87 cells were seeded in six‐well plates (Corning, Corning, NY, USA) with 1 × 10^6 cells per well and treated with NCX blockers, BAPTA‐AM, or MAPK inhibitors. Drug treatment was performed by the person who is blinded to the experimental groups. After treatment, cells were harvested in 15‐ml tubes and washed with cold sterile PBS. After being centrifuged, cells were fixed with 70% ethanol […] at 4°C for at least 1 hr. For propidium iodide (PI) staining, cells were washed one time with PBS and then were treated with ribonuclease A (RNase; 100 μg·ml^−1) for 30 min. PI (10 μg·ml^−1) was added, and stained cells were kept in the dark at 4°C until analysis. The number of cells analysed for each sample was 10,000 events. FACS analysis was performed using the Coulter CytoFlexS flow cytometer (Beckman Coulter, CA, USA), and the percentage of cells in the G0/G1, S, and G2/M phases was determined using cell cycle analysis software, ModFit LT 5.0 (Verity Software House, Topsham, ME, USA). For the apoptosis assay, cells were harvested and washed twice with cold PBS and resuspended at a density of 1 × 10^6 cells·ml^−1 in 100 μl of binding buffer containing 5 μl of Annexin V–FITC and 5 μl of PI working solution (100 μg·ml^−1). After incubation at room temperature for 15 min in the dark, 400 μl of binding buffer was added to each sample. Apoptosis was analysed by Coulter CytoFlexS flow cytometer (Beckman Coulter) for at least 10,000 events, and data were analysed with the software, CyExpert 2.0 (Beckman Coulter).

p38‐MAPK = experiment: Western blot of phosphorylated and total p38-MAPK in U87 cells; settings: BAPTA‐AM 10 μM 18 hr then bepridil 25 μM 30 min
Protocol: as §1

[Ca^2+]i in U87 cells = Ca2+ imaging (Fluo-4 AM) of U87 cells; settings: BAPTA‐AM 20 μM for 2 hr before perfusion
Protocol: Cells were cultured in 96‐well plates at 8 × 10^3 per well and loaded with the cell membrane‐permeable Ca^2+ dye Fluo‐4 AM (5 μM) in 100‐μl HEPES‐buffered solution for 50 min. The solution contained (mM): 135 NaCl, 3 KCl, 2 CaCl2, 1 MgCl2, 10 glucose, and 10 HEPES, supplemented with 1% FBS at pH 7.4. To prepare the Ca^2+‐free solution, 2‐mM CaCl2 was replaced with 1‐mM EGTA in the HEPES‐buffered solution. The 96‐well plate containing the Fluo‐4 AM‐loaded cells was mounted in a Leica TCS SP8 confocal system (Leica Microsystems, Wetzlar, Germany). The confocal microscope armed with 488‐nm laser light was employed to excite the dynamic fluorescent signals in time and synchronously, while test regents were added to cells. To do Na^+ imaging, Fluo‐4 AM was replaced with the cell membrane‐permeable Na^+ dye Asante NaTrium Green‐2 AM (ANG‐2 AM) at 5 μM, which was excited by 514‐nm laser light. Visual inspection and fluorescent imaging were carried out at room temperature. The imaging data were analysed with the software https://leica-las-af-lite.software.informer.com/ 2.5 (Leica). The imaging traces shown are representative of at least three separate experiments; 12–18 cells were imaged in each experiment.

U87 cells [2] = experiment: Cell cycle assay (PI staining, flow cytometry) of U87 cells
Protocol: as §2

[3] = BAPTA‐AM 10 μM 18 hours then CB‐DMB 3.5 μM 18 hours

CC(=O)OCOC(=O)CN(CC(=O)OCOC(C)=O)c1ccccc1OCCOc1ccccc1N(CC(=O)OCOC(C)=O)CC(=O)OCOC(C)=O [BAPTA‐AM, 1,2‐bis(2‐aminophenoxy)ethane‐N,N,N′,N′‐tetraacetic acid tetrakis (acetoxymethyl ester)]
Effect on bepridil-induced JNK activation (JNK): attenuated | Effect on CB-DMB-induced apoptosis (U87 cells [1]; [3]): significantly suppressed | Effect on KB-R7943-induced apoptosis (U87 cells [1]; BAPTA‐AM 10 μM + KB‐R7943 25 μM, 20 hr): not attenuated | Effect on bepridil-induced apoptosis (U87 cells [1]; bepridil 25 μM 24 hr, pretreatment BAPTA‐AM 10 μM, CC‐930 10 μM or PD169316 10 μM): significantly attenuated | Effect on bepridil-induced p38-MAPK activation (p38‐MAPK): attenuated | Effect of pretreatment on the influence of bepridil and KB‐R7943 on [Ca2+]i ([Ca^2+]i in U87 cells): completely abrogated | Effect on CB-DMB-induced cell cycle arrest (U87 cells [2]; [3]): significantly attenuated | Effect on KB-R7943-induced G0/G1 arrest (U87 cells [2]; BAPTA‐AM 10 μM + KB‐R7943 25 μM, 18 hr): not rescued | Effect on bepridil-induced G0/G1 cell cycle arrest (U87 cells [2]; bepridil 25 μM 18 hr, pretreatment BAPTA‐AM 10 μM, CC‐930 10 μM or PD169316 10 μM): significantly attenuated
